From ChEMBL document CHEMBL4609992, “Discovery of novel small molecule induced selective degradation of the bromodomain and extra-terminal (BET) bromodomain protein BRD4 and BRD2 with cellular potencies” (Bioorg Med Chem, 2020)
pIC50: −log10 of the molar value. The source made the active and inactive calls. No cut-off for these calls is given here.

Experiments:
MOLM-13 = experiment: Antiproliferative activity against human MOLM13 cells assessed as reduction in cell viability measured after 48 hrs by CellTiter-Glo assay; type: functional, cell-based; conditions: MOLM-13, 48 h
CWR22R = experiment: Antiproliferative activity against human 22Rv1 cells assessed as reduction in cell viability; type: functional, cell-based
NCI-H358 = experiment: Antiproliferative activity against human NCI-H358 cells assessed as reduction in cell viability; type: functional, cell-based
[1] = molecular target: T1, Protein cereblon/Bromodomain-containing protein 4/Cullin-4A (Homo sapiens) (UniProt O60885+Q96SW2+Q13619); experiment: Protac activity at cereblon/cullin4A/BRD4 in human MV4-11 cells assessed as induction of BRD4 degradation at 10 nM measured after 18 hrs by Western blot analysis; type: cell-based
NCI-H226 = experiment: Growth inhibition of human NCI-H226 cells assessed as cell growth inhibition incubated for 48 hrs by sulforhodamine B assay; type: functional; conditions: NCI-H226, 48 h
HCC 2998 = experiment: Growth inhibition of human HCC2998 cells assessed as cell growth inhibition incubated for 48 hrs by sulforhodamine B assay; type: functional; conditions: HCC 2998, 48 h
T47D = experiment: Growth inhibition of human T47D cells assessed as cell growth inhibition incubated for 48 hrs by sulforhodamine B assay; type: functional
MCF7 = experiment: Growth inhibition of human MCF7 cells assessed as cell growth inhibition incubated for 48 hrs by sulforhodamine B assay; type: functional; conditions: MCF7, 48 h
SK-MEL-2 = experiment: Growth inhibition of human SK-MEL-2 cells assessed as cell growth inhibition incubated for 48 hrs by sulforhodamine B assay; type: functional; conditions: SK-MEL-2, 48 h
SW-620 = experiment: Growth inhibition of human SW620 cells assessed as cell growth inhibition incubated for 48 hrs by sulforhodamine B assay; type: functional; conditions: SW-620, 48 h
OVCAR-4 = experiment: Growth inhibition of human OVCAR4 cells assessed as cell growth inhibition incubated for 48 hrs by sulforhodamine B assay; type: functional; conditions: OVCAR-4, 48 h
RPMI-8226 = experiment: Antiproliferative activity against human RPMI8226 cells assessed as reduction in cell viability; type: functional, cell-based
IGROV-1 = experiment: Growth inhibition of human IGROV1 cells assessed as cell growth inhibition incubated for 48 hrs by sulforhodamine B assay; type: functional; conditions: IGROV-1, 48 h
MOLT-4 = experiment: Growth inhibition of human MOLT4 cells assessed as cell growth inhibition incubated for 48 hrs by sulforhodamine B assay; type: functional; conditions: MOLT-4, 48 h
OVCAR-3 = experiment: Growth inhibition of human OVCAR3 cells assessed as cell growth inhibition incubated for 48 hrs by sulforhodamine B assay; type: functional; conditions: OVCAR-3, 48 h
[2] = molecular target: T1, Protein cereblon/Bromodomain-containing protein 4/Cullin-4A (Homo sapiens); experiment: Protac activity at cereblon/cullin4A/BRD4 in human MV4-11 cells assessed as induction of BRD4 degradation at 50 nM measured after 18 hrs by Western blot analysis relative to control; type: cell-based
OVCAR-8 = experiment: Growth inhibition of human OVCAR8 cells assessed as cell growth inhibition incubated for 48 hrs by sulforhodamine B assay; type: functional; conditions: OVCAR-8, 48 h
[3] = molecular target: T1, Protein cereblon/Bromodomain-containing protein 4/Cullin-4A (Homo sapiens); experiment: Protac activity at cereblon/cullin4A/BRD4 in human MV4-11 cells assessed as induction of BRD4 degradation at 1 to 500 nM measured after 18 hrs by Western blot analysis; type: cell-based
786-0 = experiment: Growth inhibition of human 786-0 cells assessed as cell growth inhibition incubated for 48 hrs by sulforhodamine B assay; type: functional; conditions: 786-0, 48 h
Hs-578T = experiment: Growth inhibition of human Hs 578T cells assessed as cell growth inhibition incubated for 48 hrs by sulforhodamine B assay; type: functional
HOP-62 = experiment: Growth inhibition of human HOP62 cells assessed as cell growth inhibition incubated for 48 hrs by sulforhodamine B assay; type: functional; conditions: HOP-62, 48 h
DU-145 [4] = experiment: Growth inhibition of human DU145 cells assessed as cell growth inhibition incubated for 48 hrs by sulforhodamine B assay; type: functional; conditions: DU-145, 48 h
SNB-19 = experiment: Growth inhibition of human SNB19 cells assessed as cell growth inhibition incubated for 48 hrs by sulforhodamine B assay; type: functional; conditions: SNB-19, 48 h
COLO 205 = experiment: Antiproliferative activity against human COLO205 cells assessed as reduction in cell viability; type: functional, cell-based
MDA-MB-231 = experiment: Growth inhibition of human MDA-MB-231 cells assessed as cell growth inhibition incubated for 48 hrs by sulforhodamine B assay; type: functional; conditions: MDA-MB-231, 48 h
[5] = molecular target: Protein cereblon/Bromodomain-containing protein 2/Cullin-4A (Homo sapiens) (UniProt P25440+Q96SW2+Q13619); experiment: Protac activity at cereblon/cullin4A/BRD2 in human MV4-11 cells assessed as induction of BRD2 degradation at 50 nM measured after 18 hrs by Western blot analysis; type: cell-based
Chain of Protein cereblon/Bromodomain-containing protein 2/Cullin-4A (Homo sapiens) (P25440 whole entry, looked up): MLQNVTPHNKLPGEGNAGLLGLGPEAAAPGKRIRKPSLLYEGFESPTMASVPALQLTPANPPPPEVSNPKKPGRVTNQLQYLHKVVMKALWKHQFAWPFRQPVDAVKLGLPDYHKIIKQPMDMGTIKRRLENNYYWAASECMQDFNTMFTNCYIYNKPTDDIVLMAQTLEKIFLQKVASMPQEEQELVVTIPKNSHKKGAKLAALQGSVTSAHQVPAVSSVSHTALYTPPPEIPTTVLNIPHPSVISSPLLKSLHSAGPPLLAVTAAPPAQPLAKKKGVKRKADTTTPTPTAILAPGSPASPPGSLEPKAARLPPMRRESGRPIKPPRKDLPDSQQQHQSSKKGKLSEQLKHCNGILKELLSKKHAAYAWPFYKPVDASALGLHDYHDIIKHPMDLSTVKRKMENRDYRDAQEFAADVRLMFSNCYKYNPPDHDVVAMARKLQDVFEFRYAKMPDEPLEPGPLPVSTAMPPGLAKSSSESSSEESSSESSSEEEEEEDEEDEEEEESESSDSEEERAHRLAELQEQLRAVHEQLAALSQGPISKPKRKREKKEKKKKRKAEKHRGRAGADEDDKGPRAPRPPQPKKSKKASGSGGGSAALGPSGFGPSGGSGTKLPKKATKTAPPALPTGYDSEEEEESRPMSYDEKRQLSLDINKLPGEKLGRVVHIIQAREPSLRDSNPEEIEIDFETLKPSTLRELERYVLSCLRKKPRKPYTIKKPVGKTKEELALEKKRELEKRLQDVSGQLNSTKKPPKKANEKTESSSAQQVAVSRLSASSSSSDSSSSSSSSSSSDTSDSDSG
Chain of Protein cereblon/Bromodomain-containing protein 2/Cullin-4A (Homo sapiens) (Q13619 whole entry, looked up): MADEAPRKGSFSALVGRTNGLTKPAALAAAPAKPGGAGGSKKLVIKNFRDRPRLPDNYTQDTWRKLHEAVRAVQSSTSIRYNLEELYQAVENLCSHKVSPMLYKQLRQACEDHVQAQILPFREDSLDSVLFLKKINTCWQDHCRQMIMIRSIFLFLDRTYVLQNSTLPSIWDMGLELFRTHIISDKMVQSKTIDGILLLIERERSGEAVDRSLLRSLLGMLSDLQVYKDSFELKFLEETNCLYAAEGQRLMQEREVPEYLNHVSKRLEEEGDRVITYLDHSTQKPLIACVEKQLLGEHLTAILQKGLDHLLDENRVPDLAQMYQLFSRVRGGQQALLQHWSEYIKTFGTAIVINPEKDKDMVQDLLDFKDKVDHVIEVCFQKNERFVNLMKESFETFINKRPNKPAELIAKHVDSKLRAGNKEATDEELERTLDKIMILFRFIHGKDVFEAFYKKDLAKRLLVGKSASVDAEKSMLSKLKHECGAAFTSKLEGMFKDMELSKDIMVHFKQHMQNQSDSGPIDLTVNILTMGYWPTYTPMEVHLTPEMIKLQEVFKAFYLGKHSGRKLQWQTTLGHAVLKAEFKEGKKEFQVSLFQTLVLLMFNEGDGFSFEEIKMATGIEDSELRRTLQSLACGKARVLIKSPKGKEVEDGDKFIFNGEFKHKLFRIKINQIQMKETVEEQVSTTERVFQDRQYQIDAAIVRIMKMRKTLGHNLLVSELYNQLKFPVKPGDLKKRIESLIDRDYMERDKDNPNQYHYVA
Chain of Protein cereblon/Bromodomain-containing protein 2/Cullin-4A (Homo sapiens) (Q96SW2 whole entry, looked up): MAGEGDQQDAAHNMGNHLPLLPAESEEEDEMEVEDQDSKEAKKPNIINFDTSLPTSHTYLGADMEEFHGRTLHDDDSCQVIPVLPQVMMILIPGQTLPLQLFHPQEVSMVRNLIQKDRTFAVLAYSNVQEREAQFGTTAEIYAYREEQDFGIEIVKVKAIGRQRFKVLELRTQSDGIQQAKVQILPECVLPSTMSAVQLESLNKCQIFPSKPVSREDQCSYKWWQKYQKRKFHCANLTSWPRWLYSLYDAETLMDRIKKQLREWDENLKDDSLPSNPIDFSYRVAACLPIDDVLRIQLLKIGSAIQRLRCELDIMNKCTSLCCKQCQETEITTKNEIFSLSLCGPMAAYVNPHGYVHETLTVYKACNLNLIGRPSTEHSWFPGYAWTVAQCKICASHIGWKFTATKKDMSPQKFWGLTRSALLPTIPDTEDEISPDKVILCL

SN12C = experiment: Growth inhibition of human SN12C cells assessed as cell growth inhibition incubated for 48 hrs by sulforhodamine B assay; type: functional
LNCaP = experiment: Antiproliferative activity against human LNCAP cells assessed as reduction in cell viability; type: functional, cell-based
SF-295 = experiment: Growth inhibition of human SF295 cells assessed as cell growth inhibition incubated for 48 hrs by sulforhodamine B assay; type: functional; conditions: SF-295, 48 h
NCI-H522 = experiment: Growth inhibition of human NCI-H522 cells assessed as cell growth inhibition incubated for 48 hrs by sulforhodamine B assay; type: functional; conditions: NCI-H522, 48 h
HCT-116 = experiment: Growth inhibition of human HCT116 cells assessed as cell growth inhibition incubated for 48 hrs by sulforhodamine B assay; type: functional; conditions: HCT-116, 48 h
MV4-11 = experiment: Induction of apoptosis in human MV4-11 cells at < 30 nM measured after 48 hrs by Annexin V-FITC/propidium iodide staining based FACScan flow cytometry relative to control; type: functional
SF-268 = experiment: Growth inhibition of human SF268 cells assessed as cell growth inhibition incubated for 48 hrs by sulforhodamine B assay; type: functional; conditions: SF-268, 48 h
NCI-H1975 = experiment: Antiproliferative activity against human NCI-H1975 cells assessed as reduction in cell viability; type: functional, cell-based
OVCAR-5 = experiment: Growth inhibition of human OVCAR5 cells assessed as cell growth inhibition incubated for 48 hrs by sulforhodamine B assay; type: functional; conditions: OVCAR-5, 48 h
LOX IMVI = experiment: Growth inhibition of human LOXIMVI cells assessed as cell growth inhibition incubated for 48 hrs by sulforhodamine B assay; type: functional
NCI-H322M = experiment: Growth inhibition of human NCI-H322M cells assessed as cell growth inhibition incubated for 48 hrs by sulforhodamine B assay; type: functional
HT-29 = experiment: Growth inhibition of human HT-29 cells assessed as cell growth inhibition incubated for 48 hrs by sulforhodamine B assay; type: functional; conditions: HT-29, 48 h
DU-145 [6] = experiment: Antiproliferative activity against human DU145 cells assessed as reduction in cell viability; type: functional, cell-based
SR = experiment: Growth inhibition of human SR cells assessed as cell growth inhibition incubated for 48 hrs by sulforhodamine B assay; type: functional
PC-3 = experiment: Antiproliferative activity against human PC3 cells assessed as reduction in cell viability; type: functional, cell-based

Compound `COc1ccccc1S(=O)(=O)Nc1ccc2c3c(cc(CCC(=O)NCCCCNc4cccc5c4C(=O)N(C4CCC(=O)NC4=O)C5=O)cc13)C(=O)N2C` (stereo unspecified) has a pIC50 (MOLM-13) of 7.28, a pIC50 (CWR22R) of 7.09 and a pIC50 (NCI-H358) of 5.86. For the same compound, the Activity [1] was “Active”, the GI50 (NCI-H226) was 456 nM and the GI50 (HCC 2998) was 316 nM. The GI50 (T47D) was 34 nM, the GI50 (MCF7) was 303 nM and the GI50 (SK-MEL-2) was 1120 nM. It also gave a GI50 (SW-620) of 249 nM, a GI50 (OVCAR-4) of 259 nM and a pIC50 (RPMI-8226) of 6.36. The GI50 (IGROV-1) was 145 nM, the GI50 (MOLT-4) was 31 nM and the GI50 (OVCAR-3) was 1830 nM. For the same compound, the Activity [2] was 100%, the GI50 (OVCAR-8) was 360 nM and the Activity [3] was “Active”. For the same compound, the GI50 (786-0) was 2110 nM, the GI50 (Hs-578T) was 186 nM and the GI50 (HOP-62) was 416 nM. The GI50 (DU-145 [4]) was 5910 nM, the GI50 (SNB-19) was 475 nM and the pIC50 (COLO 205) was 6.81. The GI50 (MDA-MB-231) was 32 nM, the Activity [5] was “Active” and the GI50 (SN12C) was 447 nM. It also gave a pIC50 (LNCaP) of 6.21, a GI50 (SF-295) of 3220 nM and a GI50 (NCI-H522) of 2740 nM. For the same compound, the GI50 (HCT-116) was 3660 nM, the Activity (MV4-11) was 86.86% and the GI50 (SF-268) was 366 nM. For the same compound, the pIC50 (NCI-H1975) was 6.34, the GI50 (OVCAR-5) was 2740 nM and the GI50 (LOX IMVI) was 3970 nM. The GI50 (NCI-H322M) was 355 nM, the GI50 (HT-29) was 3770 nM and the pIC50 (DU-145 [6]) was 5.44. It also gave a GI50 (SR) of 122 nM and a pIC50 (PC-3) of 6.03.
